# Source: patent US11332499B2, “Cyclic peptides and methods of use thereof” (Regents of the University of Minnesota, priority 2018, dated 2022)
# “Also recorded” adds a separate entry of the source. Bridge positions count the residues as written; N and C are the ends. Square brackets hold non-standard residues; d marks the D form. Dap = NC[C@H](N)C(=O)O
# B1: mASP: recombinant mouse agouti-signaling protein (protein, UniProt Q03288 23-131, looked up)
# Agouti-signaling protein: HLALEETLGDDRSLRSNSSMNSLDFSSVSIVALNKKSKKISRKEAEKRKRSSKKKASMKKVARPPPPSPCVATRDSCKPPAPACCDPCASCQCRFFGSACTCRVLNPNC
# How the values were obtained:
# mMC1R [1] = target: T1, mMC1R (Mus musculus, UniProt Q01727); assay: AlphaScreen cAMP assay, agonist activity, HEK293 cells stably expressing mMC1R; assay type: cell-based; conditions: Table 2; at 100 μM, relative to NDP-MSH
# T1 construct: expressed in transfected cells
# mMC3R [2] = target: T2, mMC3R (Mus musculus, UniProt P33033); assay: AlphaScreen cAMP assay, agonist activity, HEK293 cells stably expressing mMC3R; assay type: cell-based; conditions: Table 2; at 100 μM
# T2 construct: expressed in transfected cells
# mMC4R [3] = target: T3, mMC4R (Mus musculus, UniProt P56450); assay: AlphaScreen cAMP assay, agonist activity, HEK293 cells stably expressing mMC4R; assay type: cell-based; set-up: expressed in transfected cells; conditions: Table 2; at 100 μM
# rats = conditions: ICV administration into rats; cited from earlier work
# MC1R = MC1R (Mus musculus, UniProt Q01727); conditions: previously reported; read-out: MC1R agonist potency; cited from earlier work
# hMC4R-Kir7.1(M125R) = target: T4, hMC4R-Kir7.1(M125R) (Homo sapiens, UniProt P32245); assay: Kir7.1 thallium flux assay, HEK293 cells expressing human MC4R and Kir7.1 (M125R); assay type: cell-based; conditions: for fold selective for Kir7.1 signaling over cAMP antagonism / fold selective for cAMP over Kir7.1 signaling: antagonist Ki / Kir7.1 apparent potency
# T4 construct: expressed in transfected cells; Kir7.1 tetracycline-induced)
# Description: In this assay, the Kir7.1 (M125R) variant was used since it previously was reported to result in higher unitary conductance compared to the native channel.^39
# The compound with the highest apparent potency.
# HEK293 cells stably expressing the human MC4R and Kir7.1 (M125R) were grown in MEM medium with 10% FBS without antibiotics, suspended in medium plus 1 μg ml^−1 tetracycline (to induce expression of the transfected tet-sensitive Kir7.1 gene) and plated (20 μL) in 384-well poly-D-lysine coated optical bottom plates (BD Biosciences) at 20,000 cells per well. Plates were incubated overnight for 16-24 h in the cell incubator at 37° C., 5% CO2. […] Plates were incubated in the dark for 1 h at room temperature and dye solution was removed. Upon addition of 20 μL 1×HBSS buffer, a liquid handler added 20 μL of ligand solution to entire plate simultaneously (ligands were prepared by serial dilution in 1×HBSS, 20 mM HEPES, 0.1% BSA, pH 7.3). Plates were incubated in the dark for 20 min (unless otherwise indicated). After a baseline reading on a Thallos Plate-reader (Vanderbilt, Tenn.), 10 μL of a thallium solution (1×HBSS, 20 mM HEPES, 2 mM Tl, pH 7.3) was loaded and fluorescence generated by thallium influx was recorded for 10 min. The signal was normalized to an untreated control.
# free-feeding mice = assay: Mouse feeding study, intracerebroventricular (ICV) administration; assay type: in vivo
# Description: Cannulation surgeries were performed to place a cannula into the lateral cerebral ventricle as previously reported.^23,67,76 Mice were anesthetized with a mixture of xylazine (5 mg/kg) and ketamine (100 mg/kg) administered intraperitoneal (IP) and placed in a stereotaxic apparatus (David Kopf Instruments) that was used to guide the cannula placement. […] After surgery, flunixin meglumine (FluMegluine, Clipper Distribution Company) and 0.5 mL of 0.9% saline (Hospira, Lake Forrest, Ill.) was administered subcutaneously to aid in recovery. Mice recovered for at least 7 days prior to cannula placement validation. Mice were housed individually after surgery and for the remainder of the experiments.
# Cannula placement was validated by the feeding response after ICV administration of 2.5 μg of human (h)PYY3-36 (cat # H8585; Bachem), as described previously.^23,67,75-76 Mice received saline treatment and hPYY treatment on different days separated by a washout period of at least 3 days in a crossover design nocturnal feeding paradigm. In this paradigm, compound or saline is administered 2 h prior to lights out (t=0 h) and body weight and food are measured. Mice have free access to food and water. At 4 h post-administration, food is measured. A mouse with a validated properly placed cannula consumed at least 0.8 g more food after hPYY administration compared to saline administration at 4 h.
# All ICV and IT administration experiments utilized a crossover design with free access to standard chow. Mice were housed in RAR supplied conventional mouse cages. […] Matching vehicle controls (3% v/v DMSO in saline and 20% solutol) were prepared in parallel. The day of compound administration, an aliquot of stock solution was diluted with saline to the desired experimental dose in 3 μL, in parallel with vehicle control. For ICV administration, the desired experimental dose (3 μL) or vehicle control (3 μL) was delivered 2 h before lights out (t=0 h). For IT administration, the desired experimental dose (5 μL) or vehicle control (5 μL) was delivered 2 h before lights out (t=0 h). Food intake and mouse weight was manually measured at t=0, 2, 4, 6, 8, 24, 48, and 72 h post-injection. Mice recovered 6-7 days between treatments to reestablish pretreatment body weight and feeding patterns.
# MC4R [4] = target: T5, MC4R (Homo sapiens, UniProt P32245); assay: AlphaScreen cAMP assay, antagonist activity (Schild, NDP-MSH) at hMC4R; assay type: cell-based; set-up: expressed in transfected cells; conditions: Example 5
# Description: (§1) Briefly, cells 70-90% confluent were dislodged with Versene (Gibco®) at 37° C. and plated 10,000 cells/well in a 384-well plate (Optiplate™) with 10 μL freshly prepared stimulation buffer (1×HBSS, 5 mM HEPES, 0.5 mM IBMX, 0.1% BSA, pH=7.4) with 0.5 μg anti-cAMP acceptor beads per well.
# (§2) Following stimulation, streptavidin donor beads (0.5 μg) and biotinylated-cAMP (0.62 μmol) were added to the wells in a subdued light environment with 10 μL lysis buffer (5 mM HEPES, 0.3% Tween-20, 0.1% BSA, pH=7.4) and the plates were incubated in the dark at room temperature for an additional 2 hr.
# (§3) The EC50 values represent the mean of duplicate replicates performed in at least three independent experiments. The EC50 estimates and associated standard errors (SEM) were determined by fitting the data to a nonlinear least-squares analysis using the PRISM program (v4.0, GraphPad Inc.). The ligands were assayed as TFA salts and not corrected for peptide context.
# MC4R [5] = target: T5, MC4R; assay: AlphaScreen cAMP assay, inverse agonist activity at hMC4R; assay type: cell-based; set-up: expressed in transfected cells; conditions: for hMC4R Inverse Agonist, decrease from basal signal / EC50: Table 10; for fold decreased inverse agonist apparent potency relative to AGRP: wildtype hMC4R; for EC50: apparent potency, none = no inverse agonist activity
# Description: The apparent potencies were determined from the inflection point of the normalized sigmoidal dose-response curves.
# as §1, §2, §3
# MC4R [6] = target: T5, MC4R; assay: Competitive radioligand binding, displacement of 125I-NDP-MSH, HEK293 cells expressing hMC4R; set-up: expressed in transfected cells; conditions: for fold decreased binding affinity compared to NDP-MSH: displacement of 125I-NDP-MSH; for IC50: Table 10
# MC4R [7] = target: T5, MC4R; assay: Competitive radioligand binding, displacement of 125I-AGRP, HEK293 cells expressing hMC4R; set-up: expressed in transfected cells; conditions: for fold decreased binding affinity compared to AGRP: displacement of 125I-AGRP; for IC50: Table 10
# Description: Competitive binding affinity experiments were performed on HEK-293 cells stably expressing the wildtype hMC4R. […] The assay media was carefully aspirated and cells were washed once with assay buffer. Cell were lysed with 500 μL 0.1 M NaOH and 500 μL 1% Triton X-100 for a minimum of 10 min. […] All experiments were performed with duplicate data points and in at least two independent experimental replicates. […] Concentration-response curves and IC50 values were generated and analyzed by the PRISM program (version 4.0. GraphPad Inc.) by a nonlinear regression method. The standard error of the mean (SEM) was derived from the IC50 values from at least two independent experimental replicates.
# mMC4R [8] = target: T3, mMC4R; set-up: expressed in transfected cells; conditions: previous SAR study (ref 52); cited from earlier work
# mMC5R = target: T6, mMC5R (Mus musculus, UniProt P41149); assay: AlphaScreen cAMP assay, agonist and inverse agonist activity, HEK293 cells stably expressing mMC5R; assay type: cell-based; conditions: Table 6; apparent potency at inflection point
# T6 construct: expressed in transfected cells
# male WT mice = assay: Mouse feeding study, intrathecal (IT) injection; assay type: in vivo; conditions: 2 nmol IT
# Description: This study was conducted in accordance with the guidelines set up by the Institutional Animal Care and Use Committee (IACUC) at the University of Minnesota. Male Wildtype (WT) mice (mixed 129/Sv×C57BL/6J background) derived from an in house breeding colony were used throughout this experiment as previously reported in literature.^14,23,61,63,65 Each mouse was individually housed in standard polycarbonate conventional cages provided by the University of Minnesota's Research Animal Resources (RAR). Mice were singly housed in order to adequately measure food intake of individual mice during experiments. At the beginning of this experiment, mice were age-matched at 24 weeks old. Research lab staff performed weekly cage changes. […] Mice were monitored daily to assess health.
# All mouse feeding experiments were designed following a crossover, non-fasting (nocturnal) paradigm. […] Intrathecal injections were performed as previously described.^63,66-68 Mouse body weight and food weight was recorded in 2, 4, 6, 8, 24, 48 and 72 hours post-injection following a single IT injection. […]
# Primary dependent variables were: (i) food intake; and (ii) body weight. Food intake and body weight was analyzed a two-factor within-subject Analysis of Variance (ANOVA) with between session variables of compound and the within-subject variable of time. […]
# mMC1R [9] = target: T1, mMC1R; conditions: displacement of radiolabeled NDP-MSH; read-out: Ki app, mMC1R; cited from earlier work
# mMC3R [10] = target: T2, mMC3R; conditions: displacement of radiolabeled NDP-MSH; read-out: Ki app, mMC3R; cited from earlier work
# mMC4R [11] = target: T3, mMC4R; set-up: expressed in transfected cells; conditions: displacement of radiolabeled NDP-MSH; read-out: Ki app, mMC4R; cited from earlier work
# T4 sequence (P32245 whole entry, stated change not applied): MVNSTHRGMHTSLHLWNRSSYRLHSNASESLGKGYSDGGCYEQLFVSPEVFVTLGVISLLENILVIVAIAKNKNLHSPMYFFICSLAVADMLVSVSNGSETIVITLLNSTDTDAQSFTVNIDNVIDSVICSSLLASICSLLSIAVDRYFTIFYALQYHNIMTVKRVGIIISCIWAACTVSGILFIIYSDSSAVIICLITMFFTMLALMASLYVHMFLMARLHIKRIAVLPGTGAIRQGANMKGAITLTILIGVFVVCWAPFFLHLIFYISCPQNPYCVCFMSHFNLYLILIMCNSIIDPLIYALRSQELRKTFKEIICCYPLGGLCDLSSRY
# T5 sequence (P32245 whole entry): as the sequence (P32245 whole entry, stated change not applied) above
# T6 sequence (P41149 whole entry): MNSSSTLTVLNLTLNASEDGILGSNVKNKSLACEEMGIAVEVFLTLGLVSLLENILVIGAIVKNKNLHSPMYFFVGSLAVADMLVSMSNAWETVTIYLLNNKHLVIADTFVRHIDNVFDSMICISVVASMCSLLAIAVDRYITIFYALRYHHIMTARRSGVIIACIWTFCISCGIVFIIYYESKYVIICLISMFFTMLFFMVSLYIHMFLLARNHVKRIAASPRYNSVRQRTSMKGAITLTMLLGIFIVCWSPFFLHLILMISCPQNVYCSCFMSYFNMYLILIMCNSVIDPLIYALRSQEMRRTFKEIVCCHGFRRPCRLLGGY
# T3 sequence (P56450 whole entry): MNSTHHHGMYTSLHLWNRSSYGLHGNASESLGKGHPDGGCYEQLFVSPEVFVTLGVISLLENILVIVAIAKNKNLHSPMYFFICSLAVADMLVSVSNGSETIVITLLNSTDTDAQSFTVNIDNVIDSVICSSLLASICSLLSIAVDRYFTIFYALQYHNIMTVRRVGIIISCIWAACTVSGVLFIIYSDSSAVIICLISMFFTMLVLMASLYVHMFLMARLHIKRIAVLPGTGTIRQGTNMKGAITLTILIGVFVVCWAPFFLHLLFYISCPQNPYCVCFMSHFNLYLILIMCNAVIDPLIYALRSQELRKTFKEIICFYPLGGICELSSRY
# T2 sequence (P33033 whole entry): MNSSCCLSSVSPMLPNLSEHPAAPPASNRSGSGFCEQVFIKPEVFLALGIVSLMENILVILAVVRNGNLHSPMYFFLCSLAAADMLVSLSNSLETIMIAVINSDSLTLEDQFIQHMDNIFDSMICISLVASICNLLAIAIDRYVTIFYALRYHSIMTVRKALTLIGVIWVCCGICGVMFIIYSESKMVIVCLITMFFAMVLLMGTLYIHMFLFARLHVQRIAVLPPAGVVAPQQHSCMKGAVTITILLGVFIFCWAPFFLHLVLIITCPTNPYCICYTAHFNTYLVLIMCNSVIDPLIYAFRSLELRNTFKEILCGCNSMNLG
# T1 sequence (Q01727 whole entry): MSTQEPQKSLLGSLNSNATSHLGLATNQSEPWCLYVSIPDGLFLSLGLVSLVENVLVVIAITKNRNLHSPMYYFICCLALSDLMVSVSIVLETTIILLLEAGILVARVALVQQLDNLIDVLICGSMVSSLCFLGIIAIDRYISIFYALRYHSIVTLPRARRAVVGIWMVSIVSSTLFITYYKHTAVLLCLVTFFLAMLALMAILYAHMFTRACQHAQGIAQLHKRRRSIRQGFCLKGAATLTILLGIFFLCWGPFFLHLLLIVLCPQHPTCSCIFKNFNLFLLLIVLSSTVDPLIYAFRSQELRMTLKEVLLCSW
# Sequence of MC1R (Q01727 whole entry): as above
molecule,measurement,setting,value
15 (cyclo(PRFFWAF[dP]); SMILES C[C@@H]1NC(=O)[C@H](Cc2c[nH]c3ccccc23)NC(=O)[C@H](Cc2ccccc2)NC(=O)[C@H](Cc2ccccc2)NC(=O)[C@H](CCCNC(=N)N)NC(=O)[C@@H]2CCCN2C(=O)[C@H]2CCCN2C(=O)[C@H](Cc2ccccc2)NC1=O) [Peptide 15],mMC1R percent maximal stimulatory response,mMC1R [1],80% @ 100 μM
same,mMC3R percent maximal stimulatory response,mMC3R [2],40% @
same,mMC4R percent maximal stimulatory response,mMC4R [3],50% @
"AGRP(83-132): hypothesized biologically active form of agouti-related protein (SSRRCVRLHESCLGQQVPCCDPCATCYCRFFNAFCYCRKLGTAMNPCSRT; UniProt O00253 83-132, looked up, fragment)",increase of 24 h food intake above saline,rats,77%
H-Tyr-c[Dap-Arg-Phe-Phe-Asn-Ala-Phe-Asp]-Tyr-NH2 (H-Y[Dap]RFFNAFDY-NH2; lactam 2-9),EC50,MC1R,28100 nM
c[Pro-Arg-Phe-Phe-Abu-Ala-Phe-DPro] [Peptide 4 (Example 1)],fold decreased thallium flux apparent potency compared to MDE3-119-10c,hMC4R-Kir7.1(M125R),5 fold
same,fold selective for Kir7.1 signaling over cAMP antagonism,hMC4R-Kir7.1(M125R),approximately 50 fold
same,food intake after ICV administration,free-feeding mice; 5 nmol dose,"observed to decrease food intake, a trend that did not achieve statistical significance"
same,food intake after ICV administration,free-feeding mice; 2 and 5 nmol doses,no significant food increase was observed by 8 h
same,fold decreased antagonist potency relative to MDE3-119-8c at the hMC4R,MC4R [4],19 fold
same,"hMC4R Inverse Agonist, decrease from basal signal",MC4R [5],(-15%)
same,fold decreased inverse agonist apparent potency relative to AGRP,MC4R [5],9 fold
same,fold decreased binding affinity compared to NDP-MSH,MC4R [6],20 fold
same,fold decreased binding affinity compared to AGRP,MC4R [7],16 fold
same,fold decreased antagonist potency compared to the Dap substitution at the mMC4R,mMC4R [8],25 fold
c[Pro-Arg-Phe-Phe-Ala-Ala-Phe-DPro] [Peptide 3 (Example 1)],"hMC4R Inverse Agonist, decrease from basal signal",MC4R [5],(-35%)
c[Pro-Arg-Phe-Phe-Asn-Ala-Cha-DPro] [Compound 10 (Example 3)],EC50,mMC5R,780 nM
c[Pro-Arg-Phe-Phe-Asn-Ala-Nle-DPro] [Compound 7 (Example 3)],mouse body weight vs vehicle control,male WT mice,treated animals weighing more than control animals
same,cumulative food intake vs vehicle,"male WT mice; single injection, listed as KAF2039-7",statistically significant increase in food intake at 2 and 6 hours post-injection; also recorded: prolonged trend of increased food intake up to 72 hours post-injection
c[Pro-Arg-Phe-Phe-Asn-Ala-Phe-DPro] [Peptide 1 (Example 1)],"hMC4R Inverse Agonist, decrease from basal signal",MC4R [5],(-30%)
c[Pro-Arg-Phe-Phe-Asn-Ala-Trp-DPro] [Compound 8 (Example 3)],EC50,mMC5R,150 nM
c[Pro-Arg-Phe-Phe-Asn-Ala-hPhe-DPro] [Compound 11 (Example 3)],EC50,mMC5R,290 nM
c[Pro-Arg-Phe-Phe-Asp-Ala-Phe-DPro] [Peptide 7 (Example 1)],fold decreased thallium flux apparent potency compared to MDE3-119-10c,hMC4R-Kir7.1(M125R),2 fold
same,fold selective for Kir7.1 signaling over cAMP antagonism,hMC4R-Kir7.1(M125R),over 500 fold
same,fold decreased antagonist potency relative to MDE3-119-8c at the hMC4R,MC4R [4],90 fold
same,"hMC4R Inverse Agonist, decrease from basal signal",MC4R [5],(-35%)
same,EC50,MC4R [5],2000 nM
same,fold decreased inverse agonist apparent potency relative to AGRP,MC4R [5],830 fold
same,IC50,MC4R [6],3600 nM
same,fold decreased binding affinity compared to NDP-MSH,MC4R [6],130 fold
same,IC50,MC4R [7],1300 nM
same,fold decreased binding affinity compared to AGRP,MC4R [7],100 fold
c[Pro-Arg-Phe-Phe-DDap-Ala-Phe-DPro] [Peptide 9 (Example 1)],fold decreased thallium flux apparent potency compared to MDE3-119-10c,hMC4R-Kir7.1(M125R),80 fold
same,fold selective for cAMP over Kir7.1 signaling,hMC4R-Kir7.1(M125R),4 fold
same,"hMC4R Inverse Agonist, decrease from basal signal",MC4R [5],(-30%)
c[Pro-Arg-Phe-Phe-Dap-Ala-Phe-DPro] [Peptide 2 (Example 1)],fold decreased thallium flux apparent potency compared to MDE3-119-10c,hMC4R-Kir7.1(M125R),28 fold
same,fold selective for cAMP over Kir7.1 signaling,hMC4R-Kir7.1(M125R),2 fold
same,food intake after ICV administration vs vehicle,free-feeding mice; 3 nmol dose,"significant increase in food intake at 4, 6, and 8 h"
same,food intake after ICV administration,"free-feeding mice; free feeding male mice, doses up to 3 nmol, listed as MDE3-119-8c",dose-dependent increase in food intake was observed for the first 8 h post-injection; also recorded: did not significantly alter cumulative food intake after 24 h
same,"hMC4R Inverse Agonist, decrease from basal signal",MC4R [5],(-50%)
c[Pro-Arg-Phe-Phe-Glu-Ala-Phe-DPro] [Peptide 8 (Example 1)],fold decreased antagonist potency relative to MDE3-119-8c at the hMC4R,MC4R [4],70 fold
same,"hMC4R Inverse Agonist, decrease from basal signal",MC4R [5],(-35%)
same,EC50,MC4R [5],1100 nM
same,fold decreased inverse agonist apparent potency relative to AGRP,MC4R [5],450 fold
same,IC50,MC4R [6],2500 nM
same,fold decreased binding affinity compared to NDP-MSH,MC4R [6],90 fold
same,IC50,MC4R [7],1400 nM
same,fold decreased binding affinity compared to AGRP,MC4R [7],110 fold
c[Pro-Arg-Phe-Phe-His-Ala-Phe-DPro] [Peptide 10 (Example 1)],"hMC4R Inverse Agonist, decrease from basal signal",MC4R [5],(-30%)
same,fold decreased binding affinity compared to NDP-MSH,MC4R [6],5 fold
same,fold decreased binding affinity compared to AGRP,MC4R [7],4 fold
c[Pro-Arg-Phe-Phe-Ser-Ala-Phe-DPro] [Peptide 5 (Example 1)],"hMC4R Inverse Agonist, decrease from basal signal",MC4R [5],(-25%)
same,EC50,MC4R [5],16 ± 4 nM
B1,Ki,mMC1R [9],2.6 nM
same,Ki,mMC3R [10],190 nM
same,Ki,mMC4R [11],54 nM
